Assay results: patent publication EP1067939B1, “USE OF STEROIDAL ALKALOID DERIVATIVES AS INHIBITORS OF HEDGEHOG PROTEIN SIGNALING PATHWAYS” (The Johns Hopkins University, priority 1998, dated 1999)
Where “and” joins values, the source holds several entries; their conditions need not be identical. Equal values may be shown once. Read-outs that look alike come from different tables or passages of the source.

Key:
[1] = tested on: chick embryos
From the text: • 1. M. Hammerschmidt, A. Brook, A. P. McMahon, Trends Genet, 13, 14-21 (1997). • 2. C. Chiang, et al., Nature, 383,407-413 (1996). • 3. Y. Tanabe, T. M. Jessell, Science 274, 1115-1123 (1996). • 4. T. P. Yamaguchi, Curr. Opin. Genet. Dev. 7, 513-518 (1997). • 5. N. Shubin, C. Tabin, S. Carroll, Nature 388, 639-648 (1997). • 6. A. E. Oro, et al., Science 276, 817-821 (1997). • 7. M. M. Cohen, K. K. Sulik, J. Craniofac. Genet. Deve. Biol. 12, 196-244 (1992). • 8. E. Belloni, et al., Nature Genet. 14, 353-356 (1996). • 9. E. Roessler, et al., Nature Genet. 14, 357-360 (1996). • 10. J. A. Porter, et al., Nature 374, 363-366 (1995). • 11. J. A. Porter, K. E. Young, P. A. Beacy, Science 274, 255-259 (1996b). • 12. J. J. Lee, et al., Science 266, 1528-1537 (1994). • 13. J. A. Porter, et al., Cell 86, 21-34 (1996a). • 14. C. Roux, Arch. Franc. Pediatr. 21, 451-464 (1964). • 15. C. Roux, C. R. Soc. Biol. 160, 1353-1357 (1966). • 16. D. B. Dehart, L. Lanoue, G. S. Tinit, K. K. Sulik, Am J. Med. Genet. 68, 328-337 (1997). • 17. M. Kraml, J. F. Bagli, D. Dvornik, Biochem. and Biophysical Res. Com. 15, 455-457 (1964). • 18. J. Avigan, D. Steinberg, H. E. Vroman, M. J. Thompson, E. Mosettig, J. Biol. Chem 235, 3123-3126 (1960). • 19. R. B. Clayton, A. N. Nelson, I. D. Frantz Jr., J. Lipid Res. 4, 166-178 (1963). • 20. J. Aufenanger, J. Pill, K. Stegmeier, F. H. Schmidt, Horm. Metabol. Res. 17, 612-613 (1986). • 21. […] G. Popjak, A. Meenean, E. J. Parish, W. D. Nes, J. Biol. Chem 264,6230-6238 (1989). • 23. H. Yoshikawa, Brain Deve. 13, 115-120 (1991). • 24. R. I. Kelley, et al., Am. J. Of Med. Gen. 66, 478-484 (1996). • 25. G. S. Tint, et al., New England Journal of Medicine 330, 107-113 (1994). • 26. T.E. Willnow, et al., Proc. Natl. Acad. Sci USA 93, 8460-8464 (1996). • 27. S. Stefansson, D. A. Chappell, K. M. Argraves, D. K. Strickland, W. S. Argraves, J. Biol. Chem. 270, 19417-19421 (1995). • 28. W. Binns, L. F. James, J. L. Shupe, G. Everett, Am. J. Vet. Res. 24, 1164-1174 (1963). • 29. R. F. Keeler, W. Binns, Teratology 1, 5-10 (1968). • 30. P. A. Beachy, et al., CSH Symp. Quant. Biol. 62, in press (1997). • 31. […]

[2] = biological target: T1, Shh (Mus musculus, UniProt Q62226); assay: Shh autoprocessing in stably transfected HK293 cells (immunoblot); type: cell-based; details: added during the 24-hour induction period; doses up to 5-fold higher than those required to completely inhibit Shh signaling
T1 construct: expressed in transfected cells; host or cells: HK293 cells, Ecdysone-Inducible Mammalian Expression System (Invitrogen)
From the text: To examine potential effects of these compounds on Shh processing we utilized HK293 cells cultured in lipid-depleted serum and carrying a stable integrated construct for expression of Shh under ecdysone-inducible control (47). Shh protein expression in these cells can be induced by addition of muristerone A, an ecdysone analog.
• 1. M. Hammerschmidt, A. Brook, A. P. McMahon, Trends Genet, 13, 14-21 (1997). • 2. C. Chiang, et al., Nature, 383,407-413 (1996). • 3. Y. Tanabe, T. M. Jessell, Science 274, 1115-1123 (1996). • 4. T. P. Yamaguchi, Curr. Opin. Genet. Dev. 7, 513-518 (1997). • 5. N. Shubin, C. Tabin, S. Carroll, Nature 388, 639-648 (1997). • 6. A. E. Oro, et al., Science 276, 817-821 (1997). • 7. M. M. Cohen, K. K. Sulik, J. Craniofac. Genet. Deve. Biol. 12, 196-244 (1992). • 8. E. Belloni, et al., Nature Genet. 14, 353-356 (1996). • 9. E. Roessler, et al., Nature Genet. 14, 357-360 (1996). • 10. J. A. Porter, et al., Nature 374, 363-366 (1995). • 11. J. A. Porter, K. E. Young, P. A. Beacy, Science 274, 255-259 (1996b). • 12. J. J. Lee, et al., Science 266, 1528-1537 (1994). • 13. J. A. Porter, et al., Cell 86, 21-34 (1996a). • 14. C. Roux, Arch. Franc. Pediatr. 21, 451-464 (1964). • 15. C. Roux, C. R. Soc. Biol. 160, 1353-1357 (1966). • 16. D. B. Dehart, L. Lanoue, G. S. Tinit, K. K. Sulik, Am J. Med. Genet. 68, 328-337 (1997). • 17. M. Kraml, J. F. Bagli, D. Dvornik, Biochem. and Biophysical Res. Com. 15, 455-457 (1964). • 18. J. Avigan, D. Steinberg, H. E. Vroman, M. J. Thompson, E. Mosettig, J. Biol. Chem 235, 3123-3126 (1960). • 19. R. B. Clayton, A. N. Nelson, I. D. Frantz Jr., J. Lipid Res. 4, 166-178 (1963). • 20. J. Aufenanger, J. Pill, K. Stegmeier, F. H. Schmidt, Horm. Metabol. Res. 17, 612-613 (1986). • 21. […] G. Popjak, A. Meenean, E. J. Parish, W. D. Nes, J. Biol. Chem 264,6230-6238 (1989). • 23. H. Yoshikawa, Brain Deve. 13, 115-120 (1991). • 24. R. I. Kelley, et al., Am. J. Of Med. Gen. 66, 478-484 (1996). • 25. G. S. Tint, et al., New England Journal of Medicine 330, 107-113 (1994). • 26. T.E. Willnow, et al., Proc. Natl. Acad. Sci USA 93, 8460-8464 (1996). • 27. S. Stefansson, D. A. Chappell, K. M. Argraves, D. K. Strickland, W. S. Argraves, J. Biol. Chem. 270, 19417-19421 (1995). • 28. W. Binns, L. F. James, J. L. Shupe, G. Everett, Am. J. Vet. Res. 24, 1164-1174 (1963). • 29. R. F. Keeler, W. Binns, Teratology 1, 5-10 (1968). • 30. P. A. Beachy, et al., CSH Symp. Quant. Biol. 62, in press (1997). • 31. E. D. Carstea, et al., Science 277, 228-231 (1997). • 32. S. K. Loftus, et al., Science 277, 232-235 […]. • 33. L. V. Goodrich, L. Milenkovic, K. M. Higgins, M. P. Scott, Science 277, 1109-1113 (1997). • 34. H. Kumagai, K. T. Chun, R. D. Simoni, J. Biol. Chem. 270, 19107-19113 (1995). • 35. G. Gil, J. R. Faust, D. J. Chin, J. L. Goldstien, M. S. Brown, Cell 41, 249-258 (1985). • 36. X. Hua, A. Nohturfft, J. L. Goldstein, M. S. Brown, Cell 87, 415-426 (1996). • 37. M. S. Brown, J. L. Goldstein, Cell 89, 331-340 (1997). • 38. M. M. Bryden, C. Perry, R. F. Keeler, Teratology 8, 18-28 (1973). • 39. M. L. Omnell, F. R. P. Sim, R. F. Keeler, L. C. Harne, K. W. Brown, Teratology 42, 105-119 (1990). • 40. Fertile chick eggs (white leghorn) were placed in a humidified incubator at 37.5° C in a rotating tray for 14 hours. […] The window was taped and the eggs incubated for an additional 4 days. The embryos were dissected in phosphate buffered saline (PBS, pH 7.2).

[3] = biological target: T2, His6Hh-C (Drosophila melanogaster, UniProt Q02936); assay: In vitro Hh autoprocessing reaction with purified components; type: biochemical
T2 construct: made in house

[4] = tested on: rat hepatoma cells; assay: Cholesterol Esterification Assay (esterification of plasma membrane cholesterol); type: cell-based
From the text: Table 1. […] Table 1. Effects of synthetic and plant-derived compounds on cholesterol homeostasis. […]

[5] = tested on: Shh protein; assay: Shh protein localization in floor plate cells of treated chick embryos; type: in vivo; details: embryos treated after floor plate induction
[6] = tested on: endogenous Shh signaling; assay: Midline neural plate/notochord explant assay of endogenous Shh signaling; type: cell-based, chick
[7] = tested on: BMP7; assay: Neural plate explant response to BMP7 (migratory HNK-1 positive cells); type: cell-based, chick; details: 10 µM, 100 ng/ml BMP7, ventral neural plate explants
[8] = tested on: primary human lymphoblasts; assay: Cholesterol Biosynthesis Assay (sterol profiles of cultured cells); type: cell-based; details: for Percent Sterols: 2. C28 Sterols / Percent Sterols: 3. C29 Sterols / Percent Sterols: Cholesterol / Percent Sterols: d. Zymosterol / Percent Sterols: e. Cholesta-8(14)-en-3ß-ol / Percent Sterols: f. 7 Dehydrocholesterol / Total Sterols (µg/mg protein) / Percent Sterols: c. Cholesta-7,24-dien-3ß-ol: five days
[9] = tested on: Shh-N; assay: Intermediate neural plate explant response to exogenous Shh-N protein; type: cell-based, chick
[10] = read-out: Percent Inhibition (incorporation of label into cholesteryl ester*) ^3H-Cholesterol
[11] = read-out: Percent Inhibition (incorporation of label into cholesteryl ester*) ^14C-Oleic Acid

T2 sequence (Q02936 252-471): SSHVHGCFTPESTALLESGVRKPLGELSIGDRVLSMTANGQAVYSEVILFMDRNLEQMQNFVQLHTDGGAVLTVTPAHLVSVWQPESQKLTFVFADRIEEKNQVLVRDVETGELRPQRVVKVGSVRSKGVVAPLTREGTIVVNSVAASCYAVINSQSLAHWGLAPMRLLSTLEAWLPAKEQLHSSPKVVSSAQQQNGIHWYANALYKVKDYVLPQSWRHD
T1 sequence (Q62226 25-437): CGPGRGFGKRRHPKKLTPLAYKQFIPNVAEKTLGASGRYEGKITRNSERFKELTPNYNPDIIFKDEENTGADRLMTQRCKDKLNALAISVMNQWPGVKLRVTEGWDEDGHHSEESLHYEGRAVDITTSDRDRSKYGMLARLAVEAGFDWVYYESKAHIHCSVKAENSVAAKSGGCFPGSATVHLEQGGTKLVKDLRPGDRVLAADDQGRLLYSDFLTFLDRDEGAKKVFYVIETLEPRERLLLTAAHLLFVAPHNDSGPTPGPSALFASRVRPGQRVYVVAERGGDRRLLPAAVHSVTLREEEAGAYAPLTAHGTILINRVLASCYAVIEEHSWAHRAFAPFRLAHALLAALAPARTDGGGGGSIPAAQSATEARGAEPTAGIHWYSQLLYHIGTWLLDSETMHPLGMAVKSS

CC1=C2C(=O)[C@H]3[C@@H](CC=C4C[C@@H](O)CC[C@@]43C)[C@@H]2CC[C@]12O[C@@H]1C[C@H](C)CN[C@H]1[C@H]2C [Jervine, jervine]
Holoprosencephaly induced in chick embryos ([1]; in ovo exposure at the intermediate to definitive streak stage, Fig. 2: 10 µM jervine): induced external malformations characteristic of HPE
embryos displayed normal morphology ([1]; in ovo, highest concentrations tested, 50µM): 5/10
Shh-Np production and accumulation of unprocessed precursor [2]: did not diminish Shh-Np production nor induce accumulation of unprocessed precursor
His6Hh-C autocleavage reaction in the presence of compound without sterol [3]: does not proceed
interference with cholesterol-stimulated autoprocessing [3]: does not interfere with autoprocessing
inhibition at 2.5 µM [4, 10]: 24%
inhibition at 2.5 µM [4, 11]: 28%
inhibition at 5 µM [4, 10]: 44%
inhibition at 5 µM [4, 11]: 36%
inhibition at 10 µM [4, 10]: 50%
inhibition at 10 µM [4, 11]: 49%
localization of Shh protein within floor plate cells [5]: normal apical localization of Shh protein
Higher doses that fully inhibit HNF3β and Isl-1 induction [6]: 4.0 µM
Intermediate doses that block induction of HNF3β while permitting induction of Isl-1 [6]: 0.5 µM
Induction of migratory HNK-1 positive cells by BMP7 [7]: not inhibited
Percent Sterols: a. Desmosterol [8]: 2.7% and 2.5% and 2.4%
Percent Sterols: 2. C28 Sterols ([8]; 1.25 µM): 1.2%
Percent Sterols: 3. C29 Sterols ([8]; 1.25 µM): 0.8%
Percent Sterols: Cholesterol ([8]; 1.25 µM): 90%
Percent Sterols: d. Zymosterol ([8]; 1.25 µM): 1.7%
Percent Sterols: e. Cholesta-8(14)-en-3ß-ol ([8]; 1.25 µM): 1.0%
Percent Sterols: f. 7 Dehydrocholesterol ([8]; 1.25 µM): 1.5%
Total Sterols (µg/mg protein) ([8]; 1.25 µM): 8.8 µg/mg protein
Percent Sterols: 2. C28 Sterols ([8]; 2.5 µM): 0.7%
Percent Sterols: 3. C29 Sterols ([8]; 2.5 µM): 0.8%
Percent Sterols: Cholesterol ([8]; 2.5 µM): 90%
Percent Sterols: c. Cholesta-7,24-dien-3ß-ol ([8]; 2.5 µM): 0.5%
Percent Sterols: d. Zymosterol ([8]; 2.5 µM): 2.0%
Percent Sterols: e. Cholesta-8(14)-en-3ß-ol ([8]; 2.5 µM): 1.7%
Percent Sterols: f. 7 Dehydrocholesterol ([8]; 2.5 µM): 1.4%
Total Sterols (µg/mg protein) ([8]; 2.5 µM): 8.4 µg/mg protein
Percent Sterols: 2. C28 Sterols ([8]; 5.0 µM): 0.7%
Percent Sterols: 3. C29 Sterols ([8]; 5.0 µM): 1.6%
Percent Sterols: Cholesterol ([8]; 5.0 µM): 88%
Percent Sterols: c. Cholesta-7,24-dien-3ß-ol ([8]; 5.0 µM): 0.5%
Percent Sterols: d. Zymosterol ([8]; 5.0 µM): 2.3%
Percent Sterols: e. Cholesta-8(14)-en-3ß-ol ([8]; 5.0 µM): 2.3%
Percent Sterols: f. 7 Dehydrocholesterol ([8]; 5.0 µM): 1.3%
Total Sterols (µg/mg protein) ([8]; 5.0 µM): 10 µg/mg protein
concentration that inhibits the repression of Pax7 expression by 2 nM Shh-N [9]: 0.125 µM
doses at which HNF3β and Isl-1 induction are completely blocked [9]: 0.5 µM
intermediate levels at which induction of HNF3β is blocked while induction of Isl-1 is maintained or expanded [9]: 0.25 µM
